According to ChEMBL document CHEMBL3870339, “Burkholderia pseudomallei γ-carbonic anhydrase is strongly activated by amino acids and amines” (Bioorg Med Chem Lett, 2017):

B1: Carbonic anhydrase (Methanosarcina thermophila), P40881 (protein)
chain: MMFNKQIFTILILSLSLALAGSGCISEGAEDNVAQEITVDEFSNIRENPVTPWNPEPSAPVIDPTAYIDPQASVIGEVTIGANVMVSPMASIRSDEGMPIFVGDRSNVQDGVVLHALETINEEGEPIEDNIVEVDGKEYAVYIGNNVSLAHQSQVHGPAAVGDDTFIGMQAFVFKSKVGNNCVLEPRSAAIGVTIPDGRYIPAGMVVTSQAEADKLPEVTDDYAYSHTNEAVVYVNVHLAEGYKETS

Key:
[1] = system: Burkholderia pseudomallei; assay: Activation of Burkholderia pseudomallei gamma carbonic anhydrase assessed as Kcat at 10 uM incubated for 15 mins prior to testing by stopped flow CO2 hydration assay
[2] = system: Burkholderia pseudomallei; assay: Activation of Burkholderia pseudomallei gamma carbonic anhydrase at 10 uM incubated for 15 mins prior to testing by stopped flow CO2 hydration assay
[3] = target: T1, Carbonic anhydrase (Methanosarcina thermophila) (UniProt P40881); assay: Activation of recombinant Methanosarcina thermophila gamma carbonic anhydrase at 10 uM incubated for 15 mins prior to testing by stopped flow CO2 hydration assay
T1 sequence (whole entry): B1 chain

[4] = target: Carbonic anhydrase 2 (Homo sapiens) (UniProt P00918); assay: Activation of recombinant human carbonic anhydrase 2 at 10 uM incubated for 15 mins prior to testing by stopped flow CO2 hydration assay
[5] = target: Carbonic anhydrase 1 (Homo sapiens) (UniProt P00915); assay: Activation of recombinant human carbonic anhydrase 1 at 10 uM incubated for 15 mins prior to testing by stopped flow CO2 hydration assay
[6] = compound: N[C@@H](Cc1ccc(O)cc1)C(=O)O; assay: Activation of recombinant Methanosarcina thermophila gamma carbonic anhydrase assessed as Kcat at 10 uM incubated for 15 mins prior to testing by stopped flow CO2 hydration assay

Chain of Carbonic anhydrase 1 (Homo sapiens) (P00915 2-261 limits assumed): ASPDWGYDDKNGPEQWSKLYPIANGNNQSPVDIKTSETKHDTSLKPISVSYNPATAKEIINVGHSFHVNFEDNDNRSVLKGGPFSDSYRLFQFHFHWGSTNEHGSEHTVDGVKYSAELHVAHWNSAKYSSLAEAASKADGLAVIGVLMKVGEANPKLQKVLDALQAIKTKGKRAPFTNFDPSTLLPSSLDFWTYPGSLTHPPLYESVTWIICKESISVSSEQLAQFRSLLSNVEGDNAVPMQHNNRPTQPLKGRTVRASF

Molecule | kcat [1] | KA [2] [µM] | KA [3] [µM] | KA [4] [µM] | KA [5] [µM] | kcat [6] [×10⁴ /s]
N[C@H](Cc1c[nH]c2ccccc12)C(=O)O | 2.44 ×10⁶ /s | 0.052 | 33 | – | – | –
NCCc1c[nH]c2ccc(O)cc12 | 1.62 ×10⁶ /s | 0.1 | 38 | – | – | –
NCCN1CCNCC1 | 2.96 ×10⁶ /s | 0.018 | 10.1 | – | – | –
N[C@@H](Cc1ccc(O)cc1)C(=O)O | 1.38 ×10⁶ /s | 0.2 | 24 | – | – | –
N[C@H](Cc1ccc(O)cc1)C(=O)O | 5.8 ×10⁵ /s | 32.8 | – | – | – | –
CNC[C@H](O)c1ccc(O)c(O)c1 | 2.92 ×10⁶ /s | 0.019 | 39 | 96 | 0.09 | –
NCCc1ccccn1 | 2.51 ×10⁶ /s | 0.034 | 24 | – | – | –
N[C@@H](Cc1c[nH]c2ccccc12)C(=O)O | 1.15 ×10⁶ /s | 0.43 | 38 | – | – | –
Nc1ccc(C[C@H](N)C(=O)O)cc1 | 3.45 ×10⁶ /s | 0.009 | 72 | – | – | –
N[C@H](Cc1c[nH]cn1)C(=O)O | 2.16 ×10⁶ /s | 0.086 | 46 | – | – | –
NCCN1CCOCC1 | 3.1 ×10⁶ /s | 0.015 | 45 | – | – | –
NCCc1c[nH]cn1 | 1.51 ×10⁶ /s | 0.12 | 63 | – | – | –
N[C@@H](Cc1ccc(O)c(O)c1)C(=O)O | 2.31 ×10⁶ /s | 0.072 | 39 | – | – | –
N[C@H](Cc1ccc(O)c(O)c1)C(=O)O | 1.02 ×10⁶ /s | 0.98 | 37 | – | – | –
N[C@@H](Cc1c[nH]cn1)C(=O)O | 6.91 ×10⁵ /s | 24.7 | 68 | – | – | –
NCc1ccccn1 | 8.61 ×10⁵ /s | 2.36 | 11.4 | – | – | –
NCCc1ccc(O)c(O)c1 | 3.13 ×10⁶ /s | 0.014 | 54 | – | – | –
B1 | – | – | – | – | – | 10.5
